Assay [1] deals with Dermatitis Models Induced by Repeated Topical Application of Hapten. As to the kind of experiment: Dermatitis model induced by repeated topical application of hapten (oxazolone, ear swelling). The class given is in vivo, BALB/c male mice. The note with it: BALB/c mice; repeated topical challenge (Day 0, 2, 4, 7, 9) with 0.5% oxazolone containing 1% (w/v) test compound; ear thickness 24 hours after final challenge at Day 9 vs control. The protocol: Effects of the respective test compounds were expressed as ear swelling inhibitory rate (%) given by the following formula. Ear swelling inhibitory rate (%)=[1−(mean ear swelling of group treated with test compound/mean ear swelling of control group)]×100 Note) Ear swelling=Ear thickness 24 hours after challenge at Day 7−Ear thickness before challenge at Day 7 (2) Effects of Test Compounds on Dermatitis Models Induced by Repeated Topical Application of Hapten (Method) […], BALE/c male mice (BALB/c AnNCrlCrlj, 5-weeks old, acclimating term: one week, body weight: 20 to 30 g, one group: 4 to 6 mice, available from CHARLES RIVER LABORATORIES JAPAN, INC.) were sensitized on both sides of right ears by a topical application of 20 μL (10 μL for each side) 0.5% (w/v) oxazolone solution (Solvent: acetone)(Day−7). At the respective points of the 7th day (Day 0), 9th day (Day 2), 11th day (Day 4), 14th day (Day 7) and 16th day (Day 9) after sensitization, mice were challenged on the both sides of right ears by topical application of 20 μL (10 μL for each side) 0.5% (w/v) oxazolone solution containing 1% (w/v) of the respective test compounds (Solvent: acetone or an equal amount mixture of acetone/ethanol). Ear thickness was measured before challenge of the test compound solution or suspension by using a thickness gauge. At the final day (Day 9), ear thickness was measured also 24 hours after challenge. In control group, sensitized animals were challenged with 20 μL 0.5% (w/v) oxazolone solution containing no test compound (Solvent: acetone) on right ears. Effects of the respective test compounds were expressed as ear swelling inhibitory rate (%) given by following formula. Ear swelling inhibitory rate (%)=[1−(mean ear swelling of group treated with test compound/mean ear swelling of control group)]×100 Note) Ear swelling=(Thickness of ear 24 hours after final challenge at Day 9)−(Thickness of ear before sensitization at Day−7)

A further assay concerns Contact Dermatitis Model. In words: Contact dermatitis model (oxazolone sensitization and challenge, ear swelling). The class given is in vivo, BALB/c male mice. The note with it: BALB/c mice, oxazolone-sensitized; topical challenge on right ear at Day 7 with 0.5% oxazolone containing 1% (w/v) test compound; ear thickness 24 hours after challenge vs control. The protocol: (1) Effects of Test Compounds in Contact Dermatitis Model (Method) BALB/c male mice (BALB/c AnNCrlCrlj, 5-weeks old, acclimating term: one week, body weight: 20 to 30 g, one group: 4 to 6 mice, available from CHARLES RIVER LABORATORIES JAPAN, INC.) were sensitized by epicutaneous application of 100 μL 0.5% (w/v) oxazolone solution (Solvent: acetone) on the shaved abdomen (Day 0). At the 7th day (Day 7) after sensitization, mice were challenged on both sides of right ears by topical application of 20 μL (10 μL for each side) 0.5% (w/v) oxazolone solution containing 1% (w/v) of respective test compounds (Solvent: acetone or an equal amount mixture of acetone/ethanol). Ear thickness was measured before and 24 hours after challenge by using a thickness gauge. In the control group, sensitized animals were challenged with 20 μL 0.5% (w/v) oxazolone solution containing no test compound (Solvent: acetone) on right ears. Effects of the respective test compounds were expressed as ear swelling inhibitory rate (%) given by the following formula. Ear swelling inhibitory rate (%)=[1−(mean ear swelling of group treated with test compound/mean ear swelling of control group)]×100 Note) Ear swelling=Ear thickness 24 hours after challenge at Day 7−Ear thickness before challenge at Day 7 (2) Effects of Test Compounds on Dermatitis Models Induced by Repeated Topical Application of Hapten (Method)

Turning to “1-[2-[4-(dimethylaminophenyl)phthalazin-1(2H)-one-2-yl]-pyridin-4-yl]-2,3-bis(hydroxymethyl)-6,7-dimethoxy-naphthalene [(9)]”, in assay [1], the “Ear swelling inhibitory rate (%) Dermatitis model induced by repeated application of Hapten” value is 60.0%. Further, the “Ear swelling inhibitory rate (%) Contact dermatitis model” value in the assay with Contact Dermatitis Model was determined as 52.0%.
Turning to `COc1cc2cc(CO)c(CO)c(-c3ccnc(-n4c(=O)cc(NCCCNC5CCCCC5)c5ccccc54)c3)c2cc1OC` [(8), 1-[2-[1,2-dihydro-4-[3-(cyclohexylamino)propylamino]-2-oxoquinolin-1-yl]pyridin-4-yl]-2,3-bis(hydroxymethyl)-6,7-dimethoxynaphthalene], the “Ear swelling inhibitory rate (%) Dermatitis model induced by repeated application of Hapten” value in assay [1] was determined as 37.0%. Moreover, in the assay on Contact Dermatitis Model, the “Ear swelling inhibitory rate (%) Contact dermatitis model” value stood at 75.0%.
Regarding `COc1cc2cc(CO)c(CO)c(-c3ccnc(-n4nc(-c5cccnc5)c5cc(OC)c(OC)cc5c4=O)c3)c2cc1OC` [(10), 1-[2-[6,7-dimethoxy-4-(3-pyridyl)phthalazin-1(2H)-one-2-yl]pyridin-4-yl]-2,3-bis(hydroxymethyl)-6,7-dimethoxy-naphthalene], in the assay with Contact Dermatitis Model, the “Ear swelling inhibitory rate (%) Contact dermatitis model” value is 66.0%.
Regarding “(3S)-1-[2-[4-(dimethylaminophenyl)phthalazin-1(2H)-one-2-yl]pyridin-4-yl]-3,4-dihydro-3-hydroxymethyl-6,7-dimethoxy-isoquinoline [(11)]”, the “Ear swelling inhibitory rate (%) Dermatitis model induced by repeated application of Hapten” value in assay [1] is reported as 51.0%. In addition, the “Ear swelling inhibitory rate (%) Contact dermatitis model” value with Contact Dermatitis Model is 69.0%.

Source of the values: US7868019B2, “Dermatitis treating agent” (Mitsubishi Tanabe Pharma Corporation, priority 2005, dated 2011).
